Earlier results, collected in patent US9629360B2, “Water-based pesticidal suspension” (priority 2010, dated 2017).
≈ marks a conversion by molar mass, not a printed value.

Conditions: 20° C.

Structure (SMILES)	aqueous solubility
COP(=O)(OC)SCn1c(=O)oc2cc(Cl)cnc21 [azamethiphos]	1100 µg/mL (≈ 3.39 mM)
Cc1nc(N(C)C)nc(OC(=O)N(C)C)c1C [pirimicarb]	3100 µg/mL (≈ 13 mM)
